One series relates to MT-2 human T-cells. Briefly: General cytotoxicity in MT-2 cells in the absence of virus.
For series [1], the system named is wild-type IIIB strain of HIV-1 in MT-2 human T-cells. In words: Antiviral activity against HIV-1. Type of series: cell-based. The settings on record: HIV-1 IIIB, MT-2 cells, multiplicity of infection 0.1; activity above background.

Regarding `O=C1Nc2ccc(Cl)cc2[C@@](C#CC2CC2)(C(F)(F)F)O1` [Efavirenz, reference compound], the “general cytotoxicity (in words)” value with MT-2 human T-cells (same (low nanomolar) range of concentrations) is on record as “no general cytotoxicity”.

As to `C[C@H]1CCCC[C@H]2C(=O)C=C[C@H](O)[C@@H]2CC(=O)O1` [Sch-642305], the “protection of cells from cell death due to viral killing” value in series [1] was “below 50%”. In the series on MT-2 human T-cells (read-out: IC50 (general cytotoxicity), absence of virus, concentration at which 50 % of the cells are killed), the IC50 was 750 nM.

The values are drawn from publication PMC3811095 (Chemical science (Royal Society of Chemistry : 2010), 2011).
